The text below walks through data of US3991210A, “Acetamidine urinary antiseptics” (The Dow Chemical Company, priority 1975, dated 1976).

The test system of data set [1] is Escherichia coli. Nature of the data set: Antimicrobial activity of urine collected from mice after oral dosing, against Escherichia coli. For urinary antiseptic activity, EC: key: +: urinary antiseptic activity and inhibition of microbial growth being observed; O: no urinary antiseptic activity and no inhibition of microbial growth are observed. The following applies: for urinary antiseptic activity, EC: single oral dose 56.2 mg/kg. It counts as in vivo. The method, then: (§1) Separate groups of mice are fasted overnight, but are provided with water ad libitum prior to oral administration of a substituted amidine test compound. […] Urine is collected in sterile containers at intervals over the period from 1 to 24 hours after administration of the test compound. The collected urine is assayed for antimicrobial activity against Escherichia coli, Pseudomonas aeruginosa and a Proteus species, either Proteus vulgaris or Proteus mirabilis. Urine samples collected from the separate groups of mice administered one of 2-(4-chlorophenyl)acetamidine hydrochloride, 2-(4-bromophenyl)-acetamidinehydrochloride, 2-(4-chlorophenyl)acetamidoxime hydrochloride and 2-(4-bromophenyl)acetamidoxime hydrochloride are found to be active against all three test organisms.
(§2) The procedure of Example 1 is repeated, employing the substituted amidine compound 2-(4-bromophenyl)-acetamidine hydrochloride, and the known antiseptics gentamicin and nalidixic acid as test compounds. […]

In data set [2] the test system is Pseudomonas aeruginosa. Nature of the data set: Antimicrobial activity of urine collected from mice after oral dosing, against Pseudomonas aeruginosa. For urinary antiseptic activity, PA: key: +: urinary antiseptic activity and inhibition of microbial growth being observed; O: no urinary antiseptic activity and no inhibition of microbial growth are observed. The settings on record: for antimicrobial activity of urine against Pseudomonas: 60 mg/kg, similar operations; for antimicrobial activity of urine against Pseudomonas aeruginosa: oral, 50 mg/kg, urine collected 1 to 24 hours; for urinary antiseptic activity, PA: single oral dose 56.2 mg/kg. It counts as in vivo. The method, then:
as §1, §2

Data set [3] concerns Proteus species, either Proteus vulgaris or Proteus mirabilis. In words: Antimicrobial activity of urine collected from mice after oral dosing, against a Proteus species (Example 1). It counts as in vivo, Proteus vulgaris or Proteus mirabilis (urine from mice). The settings on record: for antimicrobial activity of urine against Proteus: 60 mg/kg, similar operations; for antimicrobial activity of urine against Proteus species: oral, 50 mg/kg, urine collected 1 to 24 hours. The method, then: as §1

For data set [4], the system named is Proteus mirabilis. In words: Proteus mirabilis urinary tract infection in Wistar rats, 14 days treatment (Example 4). The data set is classed as in vivo. The following applies: infected Wistar rats, oral. From the text: (§3) Several groups of Wistar rats are surgically prepared and given a urinary tract infection by injection into the lumen of the bladder of 0.1 milliliter of a brain-heart infusion broth culture of Proteus mirabilis, in a procedure similar to that of Miraglia, Transact. N.Y. Acad. Sc. 32, 337 (1970). One group is similarly prepared surgically, but is not infected with the test organism, providing an operated, non-infected control group. Three hours after the surgical operations are complete, the animals in three of the groups (the test groups) are orally administered 100 milligrams per kilogram of nalidixic acid, or 2-(4-bromophenyl)acetamidine hydrochloride at a dosage rate of 50 or 100 milligrams per kilogram. A fourth group is not administered any test compound to serve as an infected control group.
(§4) The animals in each group are weighed daily and the test compounds are administered to the test groups daily at the same dosage rate for a total of 14 days. At the end of the 14 day test period, the animals are sacrificed. Swabs of the kidney pelvis and samples of bladder urine are obtained and examined by bacteriological culture techniques, and pathological examinations are carried out.

A short description of data set [5]: Standard pharmacological evaluation procedures in mice. The following applies: 60 mg/kg. The data set is classed as in vivo. The method, then:
In other operations, 2-(4-bromophenyl)acetamidine hydrochloride is administered to mice at a dosage rate of 60 milligrams per kilogram in a series of standard pharmacological evaluation procedures.

Data set [6] in a line: Acute oral lethality (LD50) in mice. The settings on record: mouse, in vivo, mice, per os, 24 hours, read-out: LD50 (dosage lethal to 50 percent of the mice). The method, then: Separate groups of mice are separately administered an aqueous composition containing 2-(4-bromophenyl)acetamidine hydrochloride. The compound is administered per os at various dosage rates, and the animals are held for 24 hours, after which deaths are recorded, and the LD50 (dosage lethal to 50 percent of the mice) is determined.

Data set [7] concerns Proteus vulgaris. In words: Antimicrobial activity of urine collected from mice after oral dosing, against Proteus vulgaris (Example 2). Note: key: +: urinary antiseptic activity and inhibition of microbial growth being observed; O: no urinary antiseptic activity and no inhibition of microbial growth are observed. It counts as in vivo. The following applies: single oral dose 56.2 mg/kg. The method, then:
Separate groups of mice are fasted overnight, but are provided with water ad libitum prior to oral administration of a substituted amidine test compound. The test compounds are administered orally at a dosage rate of 50 milligrams of test compound per kilogram of animal body weight in an aqueous carrier. Urine is collected in sterile containers at intervals over the period from 1 to 24 hours after administration of the test compound. The collected urine is assayed for antimicrobial activity against Escherichia coli, Pseudomonas aeruginosa and a Proteus species, either Proteus vulgaris or Proteus mirabilis. Urine samples collected from the separate groups of mice administered one of 2-(4-chlorophenyl)acetamidine hydrochloride, 2-(4-bromophenyl)-acetamidinehydrochloride, 2-(4-chlorophenyl)acetamidoxime hydrochloride and 2-(4-bromophenyl)acetamidoxime hydrochloride are found to be active against all three test organisms.
The procedure of Example 1 is repeated, employing the substituted amidine compound 2-(4-bromophenyl)-acetamidine hydrochloride, and the known antiseptics gentamicin and nalidixic acid as test compounds. Each test compound is administered in a single oral dose of 56.2 milligrams per kilogram; and separate urine samples are separately collected and assayed at intervals of 1, 4 and 24 hours after administration.

The subject of data set [8] is Proteus mirabilis. In words: Proteus mirabilis urinary tract infection in Holtzman rats (Example 5). It counts as in vivo. The following applies: PO.
From the text: as §3, §4
The operations of Example 4 are repeated using six Holtzman rats per group and using nitrofurantoin instead of nalidixic acid.

In data set [9] the test system is Proteus mirabilis. In words: Proteus mirabilis urinary tract infection in rats, bacterial count per kidney (Example 6). It counts as in vivo. The following applies: oral, three doses at 4, 28, 52 hours, 72 hours. The method, then: In a similar operation, a Proteus mirabilis urinary tract infection was established in rats using a similar surgical technique. In separate groups, the test compound 2-(4-bromophenyl)acetamidine p-toluene-sulfonate, or the reference compound nalidixic acid, were administered orally in three doses, 4, 28 and 52 hours after completion of the surgical technique used to establish the infection. Separate groups of rats were left untreated to serve as controls. After 72 hours, the animals were euthanized with carbon dioxide. The left kidney was removed, homogenized in 9 milliliters sterile saline solution, and fivefold dilutions of the resulting brei were made in brain-heart infusion broth. Bacterial counts in the dilutions were determined after 24 hours incubation at 37° C. The oral dose in milligrams per kilogram (mg/kg); millimoles per kilogram (mM); the number of animals in each group, and the base ten logarithm (Log10) of the bacterial count (number of organisms per kidney) are set out below.

[10] abbreviates: 50 or 100 mg/kg per day, 14 days.
[11] abbreviates: oral, 50 mg/kg, urine collected 1 to 24 hours.

Where a name gives a salt, the structure may show the parent alone.

With `NC(Cc1ccc(Cl)cc1Cl)=NO` [2-(2,4-dichlorophenylacetamidoxime hydrochloride, reference compound], the “antimicrobial activity of urine against E. coli” value in [1] (60 mg/kg, similar operations) is recorded as “ineffective”. Besides, the “antimicrobial activity of urine against Pseudomonas” value in data set [2] is given as “ineffective”. Besides, in [3], the “antimicrobial activity of urine against Proteus” value is reported as “ineffective”.

On to `Cl.N=C(N)Cc1ccc(Br)cc1` [2-(4-bromophenyl)acetamidine hydrochloride], for which the weight gain rate result in [4] (50 mg/kg per day, 14 days) is given as “normal in all but one of the rats”. The “weight gain rate after the tenth day” value in [4] (50 mg/kg per day, after the tenth day) is reported as “normal for all the rats in this group after the tenth day”. Moreover, the weight gain rate entry in data set [4] (100 mg/kg per day, 2-(4-bromophenyl)-acetamidine hydrochloride group) is reported as “approximately mormal in all but two of the rats”. In addition, the “weight gain after the sixth day” value in [4] (100 mg/kg per day, after the sixth day) is reported as “normal weight gain is observed with all but one of the test animals”. Further, in [4] (setting [10]), the “gross pathological changes attributable to the infection” value is recorded as “No gross pathological changes attributable to the infection”; the “infecting Proteus organism in swab and urine cultures” value is “no evidence of the infecting Proteus organism”. Besides, in data set [4] (50 or 100 mg/kg per day, 14 days, except slight E. coli growth in one rat), the “bacteriological culture of swabs and urine” value is recorded as “bacteriologically sterile”. The “growth of E. coli in urine and kidney swab cultures” value in data set [4] (50 or 100 mg/kg per day, one of the rats, attributed to contamination during autopsy) is “slight growth of E. coli noted in the urine and one of the kidney swabs from one of the rats”. Further, the “antimicrobial activity of urine against E. coli” value in data set [1] (setting [11]) is reported as “active”. For the same molecule, the “urinary antiseptic activity, EC” value in data set [1] (urine at 1 hour) is on record as “+”. Moreover, the “urinary antiseptic activity, EC” value in data set [1] (urine at 4 hours) is “+”. The “urinary antiseptic activity, EC” value in data set [1] (urine at 24 hours) was “+”. Moreover, in data set [5], the analgesic activity entry was “no significant”, the anorectic activity entry is given as “no significant”, the anti-thrombotic activity result is listed as “some anti-thrombotic activity” and the antidepressant activity entry is listed as “no significant”. In data set [5], the hypotensive activity result is on record as “no significant” and the sedative activity entry is reported as “no significant”. The “antimicrobial activity of urine against Pseudomonas aeruginosa” value in data set [2] is given as “active”. Besides, in [2] (urine at 1 hour), the “urinary antiseptic activity, PA” value is “+”. The “urinary antiseptic activity, PA” value in data set [2] (urine at 4 hours) was “+”. Besides, in data set [6], the LD50 at 24 h amounted to 562 mg/kg. In data set [7] (urine at 1 hour), the “urinary antiseptic activity, PV” value is reported as “+”. In addition, the “urinary antiseptic activity, PV” value in [7] (urine at 4 hours) is “+”. In data set [8] (50 mg/kg), the “Percent Infection (percent of surviving rats with Proteus infection of any degree)” value (from here on “Percent Infection”) is listed as 60.0%, the “Percent Pathology (percent total pathology signs observed over total possible observations times 100)” value (“Percent Pathology” below) amounted to 13.6% and the “Percent Weight Gain” value was 16.6%. Besides, in data set [8] (100 mg/kg), the “Percent Infection” value is 20.0%, the “Percent Pathology” value was 12.7% and the “Percent Weight Gain” value worked out at 19.2%. Besides, the “antimicrobial activity of urine against Proteus species” value in [3] was “active”.

Regarding `Cl.NC(Cc1ccc(Br)cc1)=NO` [2-(4-bromophenyl)acetamidoxime hydrochloride], in data set [1] (setting [11]), the “antimicrobial activity of urine against E. coli” value is “active”. For the same molecule, the “antimicrobial activity of urine against Pseudomonas aeruginosa” value in data set [2] was “active”. For the same molecule, the “antimicrobial activity of urine against Proteus species” value in [3] is listed as “active”.

For the molecule `Cl.N=C(N)COc1ccc(Cl)cc1` [2-(4-chlorophenoxy)acetamidine hydrochloride, reference compound], in data set [1] (60 mg/kg, similar operations), the “antimicrobial activity of urine against E. coli” value was “ineffective”. Also, the “antimicrobial activity of urine against Pseudomonas” value in data set [2] is reported as “ineffective”. Besides, in data set [3], the “antimicrobial activity of urine against Proteus” value is listed as “ineffective”.

As to `Cl.N=C(N)Cc1ccc(Cl)cc1` [2-(4-chlorophenyl)acetamidine hydrochloride], the “antimicrobial activity of urine against E. coli” value in [1] (setting [11]) is “active”. Moreover, in data set [2], the “antimicrobial activity of urine against Pseudomonas aeruginosa” value is “active”. The “antimicrobial activity of urine against Proteus species” value in data set [3] is given as “active”.

With `Cl.NC(Cc1ccc(Cl)cc1)=NO` [2-(4-chlorophenyl)acetamidoxime hydrochloride], the “antimicrobial activity of urine against E. coli” value in data set [1] (setting [11]) is “active”. For the same molecule, in [2], the “antimicrobial activity of urine against Pseudomonas aeruginosa” value is listed as “active”. In addition, in [3], the “antimicrobial activity of urine against Proteus species” value is listed as “active”.

Consider `Cl.NC(Cc1ccc([N+](=O)[O-])cc1)=NO` [2-(4-nitrophenyl)acetamidoxime hydrochloride, reference compound], for which the “antimicrobial activity of urine against E. coli” value in data set [1] (60 mg/kg, similar operations) was “effective against E. coli”. The “antimicrobial activity of urine against Pseudomonas” value in data set [2] was “not against the Pseudomonas or Proteus test organisms”. For the same molecule, in data set [3], the “antimicrobial activity of urine against Proteus” value was “not against the Pseudomonas or Proteus test organisms”.

In the case of `NC(Cc1ccccc1)=NO` [2-phenylacetamidioxime hydrochloride, reference compound], in [1] (60 mg/kg, similar operations), the “antimicrobial activity of urine against E. coli” value was “ineffective”. Besides, the “antimicrobial activity of urine against Pseudomonas” value in [2] is listed as “ineffective”. For the same molecule, the “antimicrobial activity of urine against Proteus” value in data set [3] was “ineffective”.

As to `CCn1cc(C(=O)O)c(=O)c2ccc(C)nc21` [Nalidixic acid, nalidixic acid, reference compound], the “bacteriological culture of kidney pelvis swabs and bladder urine” value in data set [4] (100 mg/kg per day, 14 days) is listed as “bacteriologically sterile”. Besides, the “gross pathology attributable to the infection” value in data set [4] (100 mg/kg per day, 14 days) is “No gross pathology attributable to the infection”. Also, the weight gain result in data set [4] (100 mg/kg per day, 14 days) is listed as “gain weight normally”. Besides, the “urinary antiseptic activity, EC” value in data set [1] (urine at 1 hour) and in data set [1] (urine at 4 hours) was “+” throughout. The “Mean Bacterial Count (number of organisms per kidney)” value in [9] (50 mg/kg) is 3.20 Log10; in data set [9] (100 mg/kg), 2.56 Log10. Further, the “urinary antiseptic activity, PA” value in data set [2] (urine at 4 hours) is reported as “+”. Moreover, the “urinary antiseptic activity, PV” value in [7] (urine at 1 hour) and in data set [7] (urine at 4 hours) was “+” each time.

In the case of `O=C1CN(/N=C/c2ccc([N+](=O)[O-])o2)C(=O)N1` [Nitrofurantoin, nitrofurantoin, reference compound], in [8] (100 mg/kg), the “Percent Infection” value is 33.0%, the “Percent Pathology” value stood at 13.6% and the “Percent Weight Gain” value was determined as 16.9%. Besides, the “Percent Weight Gain, excluding one rat with unexplained severe weight loss” value in [8] (100 mg/kg, excluding one rat) came to 20.7%.

On to gentamicin, for which the “urinary antiseptic activity, EC” value in data set [1] (urine at 1 hour) was “+”. The “urinary antiseptic activity, PV” value in data set [7] (urine at 1 hour) and in data set [7] (urine at 4 hours) was “+” in each case.

The LD50 is the dose at which mortality reaches 50%.
